How the values were obtained:
[1] = biological target: Platelet-derived growth factor receptor beta (Mus musculus, UniProt P05622); test: Inhibition of endogenous PDGFRbeta autophosphorylation in Swiss 3T3 fibroblasts
[2] = biological target: T1, Receptor-type tyrosine-protein kinase FLT3 (Homo sapiens, UniProt P36888); test: Inhibition of endogenous FLT3 autophosphorylation in EOL1 cells; format: cell-based
T1 sequence (P36888 whole entry): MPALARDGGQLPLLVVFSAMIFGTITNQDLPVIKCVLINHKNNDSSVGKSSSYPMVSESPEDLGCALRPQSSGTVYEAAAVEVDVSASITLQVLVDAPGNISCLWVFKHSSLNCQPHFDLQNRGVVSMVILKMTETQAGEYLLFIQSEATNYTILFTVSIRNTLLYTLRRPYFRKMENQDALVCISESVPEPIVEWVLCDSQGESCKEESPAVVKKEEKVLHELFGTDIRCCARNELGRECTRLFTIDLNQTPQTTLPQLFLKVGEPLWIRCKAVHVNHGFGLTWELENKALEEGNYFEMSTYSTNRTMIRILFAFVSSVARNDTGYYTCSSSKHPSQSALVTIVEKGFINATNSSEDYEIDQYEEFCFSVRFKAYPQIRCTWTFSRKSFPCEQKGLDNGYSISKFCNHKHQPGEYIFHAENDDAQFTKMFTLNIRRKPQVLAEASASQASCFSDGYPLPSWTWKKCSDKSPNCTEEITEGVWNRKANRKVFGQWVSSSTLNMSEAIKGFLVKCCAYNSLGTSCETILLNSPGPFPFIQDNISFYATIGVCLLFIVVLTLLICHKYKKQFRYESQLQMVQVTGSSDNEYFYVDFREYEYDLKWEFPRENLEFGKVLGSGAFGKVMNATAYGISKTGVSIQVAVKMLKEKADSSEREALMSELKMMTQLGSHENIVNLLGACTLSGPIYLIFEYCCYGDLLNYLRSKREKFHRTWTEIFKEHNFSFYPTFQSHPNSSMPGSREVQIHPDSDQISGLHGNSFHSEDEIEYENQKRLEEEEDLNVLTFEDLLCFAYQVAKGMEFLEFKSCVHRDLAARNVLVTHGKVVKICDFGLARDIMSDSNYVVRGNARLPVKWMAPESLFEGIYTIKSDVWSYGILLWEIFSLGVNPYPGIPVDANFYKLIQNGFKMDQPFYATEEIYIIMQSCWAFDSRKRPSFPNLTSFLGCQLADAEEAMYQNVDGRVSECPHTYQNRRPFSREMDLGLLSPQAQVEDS

Platelet-derived growth factor receptor beta, sequence (P05622 whole entry): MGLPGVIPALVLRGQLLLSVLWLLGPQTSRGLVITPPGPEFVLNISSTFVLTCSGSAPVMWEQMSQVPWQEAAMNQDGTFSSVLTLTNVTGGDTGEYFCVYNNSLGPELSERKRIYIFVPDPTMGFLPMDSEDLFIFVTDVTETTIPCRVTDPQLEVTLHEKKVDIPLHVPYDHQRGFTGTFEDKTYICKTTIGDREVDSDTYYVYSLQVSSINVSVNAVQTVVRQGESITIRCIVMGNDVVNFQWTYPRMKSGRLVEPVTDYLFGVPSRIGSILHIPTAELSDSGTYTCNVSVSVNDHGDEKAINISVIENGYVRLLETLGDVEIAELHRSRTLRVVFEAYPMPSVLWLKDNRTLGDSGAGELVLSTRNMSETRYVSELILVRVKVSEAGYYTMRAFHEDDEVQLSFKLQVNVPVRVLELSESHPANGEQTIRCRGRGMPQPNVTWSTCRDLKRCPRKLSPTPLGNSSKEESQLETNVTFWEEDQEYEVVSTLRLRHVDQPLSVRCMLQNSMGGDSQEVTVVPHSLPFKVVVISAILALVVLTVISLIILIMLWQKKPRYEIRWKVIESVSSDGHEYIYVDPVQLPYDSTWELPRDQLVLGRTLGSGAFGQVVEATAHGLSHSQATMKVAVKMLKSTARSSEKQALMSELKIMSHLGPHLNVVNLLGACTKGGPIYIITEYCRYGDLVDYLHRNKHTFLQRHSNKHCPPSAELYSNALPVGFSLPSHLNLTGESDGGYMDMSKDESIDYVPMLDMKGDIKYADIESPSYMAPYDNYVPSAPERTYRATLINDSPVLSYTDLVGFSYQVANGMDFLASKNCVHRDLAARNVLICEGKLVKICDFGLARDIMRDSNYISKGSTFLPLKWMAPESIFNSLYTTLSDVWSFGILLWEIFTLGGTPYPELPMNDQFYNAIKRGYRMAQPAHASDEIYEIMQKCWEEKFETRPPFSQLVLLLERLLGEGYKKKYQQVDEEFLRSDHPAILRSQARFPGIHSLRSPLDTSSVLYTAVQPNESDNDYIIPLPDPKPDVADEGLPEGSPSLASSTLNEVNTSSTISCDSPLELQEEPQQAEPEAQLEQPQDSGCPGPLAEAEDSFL

Row | SMILES | IC50 [1] | IC50 [2]
1 | O=C(c1cc2ccccc2[nH]1)c1cc2ccccc2o1 | 1.07 µM | 
2 | Cc1cc2ncc(-c3ccccc3)nc2cc1C [AG1295] | 5.4 µM | 
3 | O=C(c1cc2ccccc2o1)c1cc2ccccc2o1 | 1.2 µM | 
4 | COc1ccc2oc(C(=O)c3cc4cc(OC)ccc4o3)cc2c1 | 1 µM | > 30 µM
5 | COc1ccc2cc(C(=O)c3cc4ccc(OC)cc4o3)oc2c1 | > 30 µM | > 30 µM
6 | O=C(c1cc2cc(O)ccc2[nH]1)c1cc2cc(O)ccc2o1 | 0.2 µM | 
7 | O=C(c1cc2cc(O)ccc2o1)c1cc2cc(O)ccc2o1 | 0.6 µM | 
8 | O=C(c1cc2cccc(O)c2o1)c1cc2cccc(O)c2o1 | 20 µM | > 30 µM
9 | Nc1ccc2oc(C(=O)c3cc4cc(N)ccc4o3)cc2c1 | 1.2 µM | 
10 | COc1cccc2oc(C(=O)c3cc4c(OC)cccc4o3)cc12 | > 30 µM | > 30 µM
11 | CC(=O)Oc1ccc2oc(C(=O)c3cc4cc(OC(C)=O)ccc4o3)cc2c1 | 0.7 µM | 
12 | COc1cccc2cc(C(=O)c3cc4cccc(OC)c4o3)oc12 | > 30 µM | > 30 µM
13 | O=C(c1cc2ccc(O)cc2o1)c1cc2ccc(O)cc2o1 | 9.7 µM | 

From ChEMBL document CHEMBL1142902, “Inhibition of FLT3 and PDGFR tyrosine kinase activity by bis(benzo[b]furan-2-yl)methanones” (Bioorg Med Chem, 2007)
